Experimental data published in the supplement of paper PMC10307832.

compound: Cc1ccc2nc(NCCN)c3ncc(C)n3c2c1; assay: relative viability (nuclei count vs DMSO), 5 days (fraction); higher = more cells survive; settings: 0.4 µM
Method in brief: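 Lung cancer cell lines in 1536-well plates were kept overnight at 37 °C, then pinned with five library-drug doses (not always all listed) spaced by √10 on vehicle-anchored plates. After 5 days without medium change, cells were fixed, permeabilised and Hoechst-stained in one step, imaged at 4×, and nuclei were counted with MetaXpress. Viability is treated-well nuclei divided by vehicle-well nuclei, taken as the median over plates. Plates passed only with control CV below 25% and at least one doubling.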

Compared with NCI-H1355, NCI-H3122 is higher in relative viability: 0.938 for the first, 0.999 for the second.

First: NCI-H1437
Second: NCI-H1755
The relative viability of the first is higher: 0.988 for the first, 0.964 for the second.

Compared with NCI-H2023, HCC-15 is lower in relative viability: 1.09 for the first, 0.907 for the second.

Compared with PC-14, EKVX is higher in relative viability: 0.927 for the first, 0.992 for the second.

First: LC-2-ad
Second: NCI-H1563
The relative viability of the first is lower: 0.911 for the first, 0.947 for the second.

Going from NCI-H1975 to RERF-LC-KJ, the relative viability falls from 0.934 to 0.93.

Compared with ABC-1, NCI-H1944 is lower in relative viability: 0.97 for the first, 0.784 for the second.

Going from NCI-H650 to PC-3 [JPC-3], the relative viability rises from 0.797 to 1.

same assay, conditions: 1.265 µM

First: SK-LU-1
Second: NCI-H1395
The relative viability of the first is higher: 1.05 for the first, 0.859 for the second.

Compared with 201T, NCI-H1915 is lower in relative viability: 1.04 for the first, 0.93 for the second.

Compared with HCC-827, LXF-289 is lower in relative viability: 1.04 for the first, 1.01 for the second.

Compared with NCI-H23, NCI-H1299 is lower in relative viability: 1.09 for the first, 0.972 for the second.

First: NCI-H647
Second: CAL-12T
The relative viability of the first is lower: 0.865 for the first, 1.02 for the second.

Compared with NCI-H1651, EPLC-272H is higher in relative viability: 0.971 for the first, 1 for the second.

First: NCI-H2228
Second: NCI-H1792
The relative viability of the first is lower: 0.915 for the first, 0.963 for the second.

Compared with NCI-H1355, NCI-H3122 is higher in relative viability: 0.995 for the first, 1.06 for the second.

First: NCI-H1437
Second: NCI-H1755
The relative viability of the first is lower: 0.939 for the first, 0.992 for the second.

First: NCI-H2023
Second: HCC-15
The relative viability of the first is higher: 1.08 for the first, 0.916 for the second.

Going from PC-14 to EKVX, the relative viability rises from 0.917 to 0.948.

LC-2-ad and NCI-H1563 are the same in relative viability: 1.03 for the first, 1.03 for the second.

First: NCI-H1975
Second: RERF-LC-KJ
The relative viability of the first is lower: 0.85 for the first, 0.938 for the second.

Compared with ABC-1, NCI-H1944 is higher in relative viability: 1.04 for the first, 1.05 for the second.

Going from NCI-H650 to PC-3 [JPC-3], the relative viability rises from 1.02 to 1.09.

same assay, conditions: 4 µM

First: SK-LU-1
Second: NCI-H1395
The relative viability of the first is higher: 0.976 for the first, 0.633 for the second.

Compared with 201T, NCI-H1915 is higher in relative viability: 0.948 for the first, 0.954 for the second.

First: HCC-827
Second: LXF-289
The relative viability of the first is higher: 1.05 for the first, 1.02 for the second.

First: NCI-H23
Second: NCI-H1299
The relative viability of the first is lower: 0.907 for the first, 0.928 for the second.

First: NCI-H647
Second: CAL-12T
The relative viability of the first is lower: 0.741 for the first, 0.91 for the second.

First: NCI-H1651
Second: EPLC-272H
The relative viability of the first is higher: 0.917 for the first, 0.835 for the second.

Compared with NCI-H2228, NCI-H1792 is lower in relative viability: 0.838 for the first, 0.826 for the second.

Going from NCI-H1355 to NCI-H3122, the relative viability rises from 0.935 to 1.01.

Going from NCI-H1437 to NCI-H1755, the relative viability rises from 0.873 to 0.962.

Going from NCI-H2023 to HCC-15, the relative viability rises from 0.843 to 0.86.

Going from PC-14 to EKVX, the relative viability rises from 0.671 to 0.826.

Compared with LC-2-ad, NCI-H1563 is higher in relative viability: 0.965 for the first, 1.01 for the second.

First: NCI-H1975
Second: RERF-LC-KJ
The relative viability of the first is higher: 0.869 for the first, 0.823 for the second.

First: ABC-1
Second: NCI-H1944
The relative viability of the first is lower: 0.822 for the first, 0.941 for the second.

With NCI-H650 the relative viability was 0.941.
